In patent US8883782B2, “Spiro-tetracyclic ring compounds as beta-secretase modulators and methods of use” (Amgen Inc., priority 2010, dated 2014) one finds IC50 data, which are given here for 20 molecules.

The structures appear in SMILES notation. Like-named read-outs stand apart in the source and are kept apart here. Some results are limits rather than exact numbers.

In experiment [1] the target is Beta Secretase enzyme (BACE) (Homo sapiens, UniProt P56817). Description: In vitro enzymatic BACE FRET (fluorescence resonance energy transfer) assay. It counts as biochemical. The essentials:
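Run in 0.05 M acetate pH 4.2 with 10% DMSO final and 100 uM genapol; started by adding 50 nM FRET peptide substrate (fluorophore and quencher flanking the cleavage site), incubated one hour, then stopped with Tris to neutral pH before reading fluorescence.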

For experiment [2], the system named is Aβ40 in conditioned medium of cells stably expressing Amyloid Precursor Protein (APP). Description: In vitro BACE cell-based assay (Aβ40 in conditioned medium, sandwich ELISA). Conditions: Homo sapiens. The procedure, abridged:
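Quantification relied on pAb40/6E10 sandwich ELISA with Europium fluorescence counts, and IC50 was fitted versus concentration.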

Setting [3] is: average IC50, enzyme assay, read-out: BACE 1 FRET assay.
The mark [4] stands for this setting: HEK293, average IC50, HEK cells, read-out: HEK cell assay.
The mark [5] stands for this setting: HEK293, average IC50, read-out: HEK cell assay.

Beta Secretase enzyme (BACE), sequence (P56817 46-501, species assumed): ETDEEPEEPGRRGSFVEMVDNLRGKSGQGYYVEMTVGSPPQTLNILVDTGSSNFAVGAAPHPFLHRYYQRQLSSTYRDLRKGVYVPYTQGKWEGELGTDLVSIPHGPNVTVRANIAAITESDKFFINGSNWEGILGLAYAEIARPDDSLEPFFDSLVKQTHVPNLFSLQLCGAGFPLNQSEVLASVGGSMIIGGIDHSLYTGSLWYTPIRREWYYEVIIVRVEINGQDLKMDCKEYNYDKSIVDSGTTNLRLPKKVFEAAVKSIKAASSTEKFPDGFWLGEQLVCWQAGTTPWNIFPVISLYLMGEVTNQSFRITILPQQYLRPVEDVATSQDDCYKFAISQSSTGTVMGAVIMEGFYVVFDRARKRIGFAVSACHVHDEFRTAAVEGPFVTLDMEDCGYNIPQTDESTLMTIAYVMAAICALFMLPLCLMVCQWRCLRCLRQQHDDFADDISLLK

For `COc1ccc2c(c1)[C@@]1(COC(N)=N1)c1cc(C3(O)COC3)cc(F)c1O2` [Example 708, (S)-3-(2-amino-5′-fluoro-2′-methoxy-5H-spiro[oxazole-4,9′-xanthene]-7′-yl)oxetan-3-ol], the values for the IC50 in experiment [1] (setting [3]) and in experiment [2] (setting [4]) were 13.3 µM and at least 10 µM, respectively.
`COC(C)(C)COc1cnc2c(c1)[C@]1(COC(N)=N1)c1cc(-c3cccc(F)c3F)ccc1O2` [Example 315, (5S)-7-(2,3-difluorophenyl)-3-(2-methoxy-2-methylpropoxy)spiro[chromeno[2,3-b]pyridine-5,4′-[1,3]oxazol]-2′-amine]: the IC50 in experiment [1] (setting [3]) is 0.0052 µM; in experiment [2] (setting [5]), 0.0317 µM.
As to `CC1(C#Cc2cnc3c(c2)[C@]2(CSC(N)=N2)c2cc(-c4cncc(F)c4)ccc2O3)COC1` [Example 964, (5S)-7-(5-fluoro-3-pyridinyl)-3-((3-methyl-3-oxetanyl)ethynyl)spiro[chromeno[2,3-b]pyridine-5,4′-[1,3]thiazol]-2′-amine], the IC50 in experiment [1] (setting [3]) was found to be 0.0009 µM; in experiment [2] (setting [4]) it was 0.015 µM.
Regarding `CC1(C)CC(=O)N(c2cc(F)c3c(c2)[C@]2(COC(N)=N2)c2cc(-c4cccnc4F)ccc2O3)C1` [Example 797, 1-((4S)-2-amino-4′-fluoro-7′-(2-fluoro-3-pyridinyl)spiro[1,3-oxazole-4,9′-xanthen]-2′-yl)-4,4-dimethyl-2-pyrrolidinone], the figures for the IC50 in experiment [1] (setting [3]) and in experiment [2] (setting [5]) were 0.0006 µM and 0.007 µM, respectively.
In the case of `Cc1ccc(-c2cc(F)c3c(c2)[C@]2(COC(N)=N2)c2cc(-c4cccnc4F)ccc2O3)nn1` [Example 114, (S)-4′-fluoro-7′-(2-fluoropyridin-3-yl)-2′-(6-methylpyridazin-3-yl)-5H-spiro[oxazole-4,9′-xanthen]-2-amine], the IC50 stood at 0.0005 µM in experiment [1] (setting [3]) and 0.004 µM in experiment [2] (setting [5]).
On the same counts, the results for `N#Cc1cccc(-c2ccc3c(c2)C2(COC(N)=N2)c2cc(C4CCOCC4)nc(F)c2O3)c1` (stereo not shown) [Example 751, 3-(2′-amino-1-fluoro-3-(tetrahydro-2H-pyran-4-yl)spiro[chromeno[2,3-c]pyridine-5,4′-[1,3]oxazol]-7-yl)benzonitrile] are 0.0032 µM and 0.042 µM.
Take `NC1=N[C@@]2(CO1)c1cc(-c3cccnc3)ccc1Oc1c2cc(-c2cccnc2)[nH]c1=O` [Example 107, (S)-2′-amino-3,7-di(pyridin-3-yl)-5′H-spiro[chromeno[2,3-c]pyridine-5,4′-oxazol]-1(2H)-one]: the IC50 in experiment [1] (setting [3]) was determined as 0.0077 µM; in experiment [2] (setting [4]) it was 0.18 µM.
For the molecule `NC1=N[C@@]2(CO1)c1cc(-c3cccc(Cl)c3)ccc1Oc1cnc(Cl)cc12` [Example 528, (5S)-3-chloro-7-(3-chlorophenyl)spiro[chromeno[2,3-c]pyridine-5,4′-[1,3]oxazol]-2′-amine], the IC50 in experiment [1] (setting [3]) came out at 0.0553 µM; in experiment [2] (setting [4]), 2.31 µM.
Regarding `Cc1ccc(-c2cnc3c(c2)[C@]2(CSC(N)=N2)c2cc(-c4cccnc4F)ccc2O3)cn1` [Example 582, (5S)-7-(2-fluoro-3-pyridinyl)-3-(6-methyl-3-pyridinyl)spiro[chromeno[2,3-b]pyridine-5,4′-[1,3]thiazol]-2′-amine], the IC50 in experiment [1] (setting [3]) stood at 0.002 µM; in experiment [2] (setting [4]) it was 0.005 µM.
Turning to `NC1=N[C@@]2(CO1)c1cc(OCc3ccncc3)ccc1Oc1ncc(C3=CCOCC3)cc12` [Example 970, (5S)-3-(3,6-dihydro-2H-pyran-4-yl)-7-(4-pyridinylmethoxy)spiro[chromeno[2,3-b]pyridine-5,4′-[1,3]oxazol]-2′-amine], the IC50 in experiment [1] (setting [3]) was 0.112 µM; in experiment [2] (setting [4]) it was 0.455 µM.
Regarding `COc1ncccc1-c1ccc2c(c1)[C@@]1(COC(N)=N1)c1cc(/C=C/C(C)(C)C)ncc1O2` [Example 408, (5S)-3-((1E)-3,3-dimethyl-1-buten-1-yl)-7-(2-methoxy-3-pyridinyl)spiro[chromeno[2,3-c]pyridine-5,4′-[1,3]oxazol]-2′-amine], the results for the IC50 in experiment [1] (setting [3]) and in experiment [2] (setting [4]) were 0.0201 µM and 0.311 µM, respectively.
With `Cc1cc(-c2ccc3c(c2)[C@@]2(COC(N)=N2)c2cc(C4=CCOCC4)ncc2O3)cnc1F` [Example 228, (5S)-3-(3,6-dihydro-2H-pyran-4-yl)-7-(6-fluoro-5-methyl-3-pyridinyl)spiro[chromeno[2,3-c]pyridine-5,4′-[1,3]oxazol]-2′-amine], the IC50 in experiment [1] (setting [3]) worked out at 0.0025 µM; in experiment [2] (setting [5]) it was 0.014 µM.
On to `NC1=N[C@@]2(CO1)c1cc(-c3cccnc3F)ccc1Oc1ncc(N3CCC(F)(F)C3)cc12` [Example 479, (5S)-3-(3,3-difluoro-1-pyrrolidinyl)-7-(2-fluoro-3-pyridinyl)spiro[chromeno[2,3-b]pyridine-5,4′-[1,3]oxazol]-2′-amine], for which the figures for the IC50 in experiment [1] (setting [3]) and in experiment [2] (setting [4]) were 0.0011 µM and 0.0044 µM, respectively.
On the same counts, the results for `CC#Cc1cncc(-c2ccc3c(c2)[C@@]2(COC(N)=N2)c2cc(OCC4(C)COC4)cc(F)c2O3)c1` [Example 949, (4S)-4′-fluoro-2′-((3-methyl-3-oxetanyl)methoxy)-7′-(5-(1-propyn-1-yl)-3-pyridinyl)spiro[1,3-oxazole-4,9′-xanthen]-2-amine] are 0.0004 µM and 0.003 µM.
On the same counts, the results for `NC1=N[C@@]2(CO1)c1cc(-c3cccnc3F)ccc1Oc1c2cc(N2CCOCC2)nc1F` [Example 892, (5S)-1-fluoro-7-(2-fluoro-3-pyridinyl)-3-(4-morpholinyl)spiro[chromeno[2,3-c]pyridine-5,4′-[1,3]oxazol]-2′-amine] are 0.0003 µM and 0.005 µM.
With `NC1=N[C@@]2(CO1)c1cc(-c3cccnc3F)ccc1Oc1c(F)cc(-c3ccncn3)cc12` [Example 212, (4S)-4′-fluoro-7′-(2-fluoro-3-pyridinyl)-2′-(4-pyrimidinyl)spiro[1,3-oxazole-4,9′-xanthen]-2-amine], the IC50 in experiment [1] (setting [3]) worked out at 0.0014 µM; in experiment [2] (setting [5]), 0.0113 µM.
For `COc1nc(C2=CCOCC2)cc2c1Oc1ccc(-c3cccnc3F)cc1[C@@]21COC(N)=N1` [Example 832, (5S)-3-(3,6-dihydro-2H-pyran-4-yl)-7-(2-fluoro-3-pyridinyl)-1-methoxyspiro[chromeno[2,3-c]pyridine-5,4′-[1,3]oxazol]-2′-amine], the IC50 is 0.0007 µM in experiment [1] (BACE 1 FRET assay (uM)) and 0.032 µM in experiment [2] (HEK293, read-out: HEK cell assay (uM), average IC50, HEK cell assay).
For `CC1(C#Cc2cnc3c(c2)[C@]2(COC(N)=N2)c2cc(-c4cnccc4F)c(F)cc2O3)COC1` [Example 621, (5S)-8-fluoro-7-(4-fluoro-3-pyridinyl)-3-((3-methyl-3-oxetanyl)ethynyl)spiro[chromeno[2,3-b]pyridine-5,4′-[1,3]oxazol]-2′-amine], the IC50 in experiment [1] (setting [3]) stood at 0.0006 µM; in experiment [2] (setting [4]), 0.005 µM.
As to `CC1(C#Cc2cc3c(nc2F)Oc2ccc(-c4cccnc4F)cc2[C@]32COC(N)=N2)COC1` [Example 900, (5R)-2-fluoro-7-(2-fluoro-3-pyridinyl)-3-((3-methyl-3-oxetanyl)ethynyl)spiro[chromeno[2,3-b]pyridine-5,4′-[1,3]oxazol]-2′-amine], the IC50 in experiment [1] (setting [3]) came out at 0.0481 µM; in experiment [2] (setting [4]), 1.16 µM.
For the molecule `Cc1cccc(Oc2ccc3c(c2)[C@@]2(COC(N)=N2)c2cc(C4=CCOCC4)cc(F)c2O3)n1` [Example 1063, (4S)-2′-(3,6-dihydro-2H-pyran-4-yl)-4′-fluoro-7′-((6-methyl-2-pyridinyl)oxy)spiro[1,3-oxazole-4,9′-xanthen]-2-amine], the figures for the IC50 in experiment [1] (setting [3]) and in experiment [2] (setting [5]) were 0.0337 µM and 0.751 µM, respectively.
